# Source: the supplement of paper PMC10307832
# What was measured:
# Test in all cases: relative viability (nuclei count vs DMSO), 5 days (fraction); higher = more cells survive
# KIN001-266 + Vorinostat = compound: CCN1CCC(CC1)N2C=C(N=N2)CNC3=CC4=C(C(=CN=C4C(=C3)Cl)C#N)NC5=CC(=C(C=C5)F)Cl [KIN001-266] + O=C(CCCCCCC(=O)Nc1ccccc1)NO [Vorinostat] (partner 1 µM)
# Outline: (§1)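 Lung cancer cell lines, seeded in 1536-well plates, were treated the following day by pin tool with a single drug or with five library-drug doses (not always all listed) in √10 steps on top of a fixed anchor-drug dose. Cells were fixed and nuclei stained in one step after 5 days, and nuclei were counted. Relative viability is the nuclei count for treated wells divided by that for vehicle wells, reported as medians of duplicate plates.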
# KIN001-266 + Palbociclib = compound: CCN1CCC(CC1)N2C=C(N=N2)CNC3=CC4=C(C(=CN=C4C(=C3)Cl)C#N)NC5=CC(=C(C=C5)F)Cl [KIN001-266] + CC(=O)c1c(C)c2cnc(Nc3ccc(N4CCNCC4)cn3)nc2n(C2CCCC2)c1=O [Palbociclib] (partner 0.5 µM)
# Outline: as §1
# KIN001-266 + Dasatinib = compound: CCN1CCC(CC1)N2C=C(N=N2)CNC3=CC4=C(C(=CN=C4C(=C3)Cl)C#N)NC5=CC(=C(C=C5)F)Cl [KIN001-266] + Cc1nc(Nc2ncc(C(=O)Nc3c(C)cccc3Cl)s2)cc(N2CCN(CCO)CC2)n1 [Dasatinib] (partner 0.075 µM)
# Outline: as §1
# KIN001-266 + Pemetrexed = compound: CCN1CCC(CC1)N2C=C(N=N2)CNC3=CC4=C(C(=CN=C4C(=C3)Cl)C#N)NC5=CC(=C(C=C5)F)Cl [KIN001-266] + Nc1nc2[nH]cc(CCc3ccc(C(=O)N[C@@H](CCC(=O)O)C(=O)O)cc3)c2c(=O)[nH]1 [Pemetrexed] (partner 0.2 µM)
# Outline: as §1
Cell Line,relative viability (KIN001-266 + Vorinostat; first compound 0.08 µM),relative viability (KIN001-266 + Vorinostat; first compound 0.253 µM),relative viability (KIN001-266 + Vorinostat; first compound 0.8 µM),relative viability (KIN001-266 + Vorinostat; first compound 2.53 µM),relative viability (KIN001-266 + Vorinostat; first compound 8 µM),relative viability (KIN001-266 + Palbociclib; first compound 0.08 µM),relative viability (KIN001-266 + Palbociclib; first compound 0.253 µM),relative viability (KIN001-266 + Palbociclib; first compound 0.8 µM),relative viability (KIN001-266 + Palbociclib; first compound 2.53 µM),relative viability (KIN001-266 + Palbociclib; first compound 8 µM),relative viability (KIN001-266 + Dasatinib; first compound 0.08 µM),relative viability (KIN001-266 + Dasatinib; first compound 0.253 µM),relative viability (KIN001-266 + Dasatinib; first compound 2.53 µM),relative viability (KIN001-266 + Dasatinib; first compound 8 µM),relative viability (KIN001-266 + Pemetrexed; first compound 0.08 µM),relative viability (KIN001-266 + Pemetrexed; first compound 0.253 µM),relative viability (KIN001-266 + Pemetrexed; first compound 0.8 µM),relative viability (KIN001-266 + Pemetrexed; first compound 2.53 µM),relative viability (KIN001-266 + Pemetrexed; first compound 8 µM),relative viability (KIN001-266 + Dasatinib; first compound 0.8 µM)
HCC-827,0.825,0.869,0.159,0.761,0.926,0.443,0.492,0.374,0.471,0.467,0.349,0.317,0.275,0.229,0.264,0.259,0.166,0.214,0.23,–
HOP-62,0.812,0.661,0.786,0.685,0.527,0.473,0.472,0.457,0.479,0.485,0.662,0.686,0.675,0.55,0.313,0.304,0.469,0.353,0.381,0.601
IA-LM,0.932,0.966,0.971,–,1.01,–,–,–,–,–,–,–,–,–,–,–,–,–,–,–
LC-2-ad,0.644,0.721,0.655,0.788,0.704,0.535,0.527,0.484,0.499,0.478,0.661,0.533,0.8,0.632,0.288,0.301,0.272,0.271,0.275,0.626
LCLC-97TM1,0.867,0.799,0.627,–,0.614,0.201,0.233,0.216,–,0.235,0.905,0.812,0.746,0.848,0.193,0.191,0.171,–,0.227,0.825
LCLC-103H,0.82,0.84,0.762,0.843,0.685,0.453,0.492,0.466,0.456,0.433,0.538,0.494,0.519,0.452,0.471,0.482,0.47,0.426,0.514,0.436
LK-2,0.419,0.395,0.417,0.531,0.524,0.794,0.691,0.797,0.589,0.67,0.361,0.256,0.269,0.22,0.275,0.237,0.211,0.158,0.273,0.237
LOU-NH91,0.96,0.924,0.71,0.746,0.797,0.526,0.544,0.509,0.525,0.53,0.553,0.531,0.516,0.435,0.369,0.392,0.385,0.378,0.425,0.39
LU99A,0.484,0.591,0.467,0.459,0.539,0.441,0.413,0.358,0.373,0.364,0.726,0.514,0.428,0.425,0.168,0.172,0.124,0.182,0.217,0.505
LXF-289,0.752,0.79,0.734,0.814,0.884,0.589,0.618,0.596,0.606,0.629,0.24,0.193,0.261,0.203,0.839,0.861,0.855,0.771,1.01,0.232
NCI-H23,0.7,0.523,0.667,0.584,0.551,0.46,0.423,0.522,0.532,0.402,0.867,0.86,0.683,0.85,0.627,0.634,0.658,0.643,0.596,0.917
NCI-H322M,0.877,0.91,0.848,0.758,0.788,0.455,0.479,0.477,0.387,0.448,0.272,0.27,0.238,0.242,0.598,0.611,0.628,0.461,0.666,0.265
NCI-H358,0.663,0.634,0.759,0.611,0.262,0.138,0.126,0.137,0.133,0.171,0.148,0.171,0.137,0.116,0.187,0.163,0.178,0.158,0.146,0.173
NCI-H596,0.745,0.599,0.682,0.636,0.558,–,–,–,–,–,0.607,0.586,0.583,0.63,0.451,0.481,0.498,0.403,0.477,0.539
NCI-H727,1.13,1.29,1.31,1.08,1.14,0.683,0.617,0.642,0.671,0.729,0.473,0.468,0.342,0.261,–,–,–,–,–,0.323
NCI-H1563,–,–,–,–,–,–,–,–,–,–,0.468,0.524,0.458,0.553,0.885,0.714,0.865,0.793,0.914,0.447
NCI-H1648,0.438,0.502,0.515,0.453,0.422,0.298,0.277,0.277,0.281,0.261,–,–,–,–,0.641,0.791,0.66,0.626,0.758,–
NCI-H1792,–,–,–,–,–,0.675,0.719,0.637,0.681,0.638,0.771,0.787,0.762,0.906,0.882,0.9,0.81,0.757,0.857,0.753
